“Also recorded” adds a separate entry of the source.
How the values were obtained:
THP-1 cells = assay: THP-1 cell adherence to immobilized Fg; format: cell-based; settings: for inhibition of THP-1 adherence to immobilized Fg: M1/70 20 μg/ml, rEfb 0.2 μM, rCoa 0.5 μM, peptides 0.5 μM each
Protocol: Cell adherence assay using cell lines—A monocytic cell line THP-1 cell stably expressing αMβ2 was maintained in RPMI1640 supplemented with 10% fetal bovine serum, […] L-glutamine, 100 units/ml penicillin and 100 μg/ml streptomycin. Prior to use, cells were harvested by centrifuge, washed and suspended in RPMI 1640/1% human serum albumin. For cell adherence assays, 48-well plates were coated with 200 μl of Fibrinogen (10 μg/ml) overnight at 4° C. followed by 1 hour at 37° C. before blocking with 1% Polyvinylpyrrolidone (PVP 3600 kDa) for 45 minutes at 37° C. Subsequently, the cells were seeded 2×10^5/well in the presence or absence of Coa or Efb recombinant proteins or peptides and incubated at 37° C. for 25 minutes. Non-adherent cells were removed by washing gently three times with PBS/1% BSA. Adherent cells were quantitated with CyQuant kit according to the manufacturer's manual.

rEfb-N binding to Fg = biological target: T1, rEfb-N binding to Fg (Homo sapiens, UniProt P02671+P02675+P02679); assay: Competition ELISA, peptide inhibition of rEfb-N (Efb 30-104) binding to Fg; settings: increasing concentration of peptides; 2 nM GST fusion protein
T1 construct: full-length human Fibrinogen (diluted in PBS, Enzyme research); purchased Enzyme research; host or cells: Efb probe made in E. coli
T1 sequence (P02671 20-629 limits assumed): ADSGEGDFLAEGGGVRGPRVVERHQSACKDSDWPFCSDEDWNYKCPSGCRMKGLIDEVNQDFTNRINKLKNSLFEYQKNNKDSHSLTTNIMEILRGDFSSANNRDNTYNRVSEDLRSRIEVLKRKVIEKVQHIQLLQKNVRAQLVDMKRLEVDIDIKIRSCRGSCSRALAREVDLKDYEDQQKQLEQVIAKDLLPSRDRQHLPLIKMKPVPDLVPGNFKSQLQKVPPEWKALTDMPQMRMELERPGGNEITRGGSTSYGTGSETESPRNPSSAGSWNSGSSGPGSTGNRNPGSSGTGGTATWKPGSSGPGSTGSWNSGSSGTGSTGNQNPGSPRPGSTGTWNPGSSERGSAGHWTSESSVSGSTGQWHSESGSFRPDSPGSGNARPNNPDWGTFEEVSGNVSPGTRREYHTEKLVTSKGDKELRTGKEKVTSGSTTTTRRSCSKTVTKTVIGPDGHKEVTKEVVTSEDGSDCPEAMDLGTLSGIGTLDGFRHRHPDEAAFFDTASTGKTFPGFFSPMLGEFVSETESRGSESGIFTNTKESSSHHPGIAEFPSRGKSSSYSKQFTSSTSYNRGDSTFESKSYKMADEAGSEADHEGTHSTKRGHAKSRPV
T1 sequence (P02675 31-491): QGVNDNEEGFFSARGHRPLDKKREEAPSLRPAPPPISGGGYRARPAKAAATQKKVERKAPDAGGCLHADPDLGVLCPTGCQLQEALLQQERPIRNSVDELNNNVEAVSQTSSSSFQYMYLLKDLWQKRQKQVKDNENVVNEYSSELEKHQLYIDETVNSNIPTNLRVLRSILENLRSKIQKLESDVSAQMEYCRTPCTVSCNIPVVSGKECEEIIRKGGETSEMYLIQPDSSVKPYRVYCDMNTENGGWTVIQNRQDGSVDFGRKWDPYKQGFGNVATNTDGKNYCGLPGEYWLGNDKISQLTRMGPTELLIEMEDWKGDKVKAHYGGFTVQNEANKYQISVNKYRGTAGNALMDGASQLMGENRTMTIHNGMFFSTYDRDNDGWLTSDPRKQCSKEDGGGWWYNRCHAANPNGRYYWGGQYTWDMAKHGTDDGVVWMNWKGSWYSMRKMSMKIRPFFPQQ
T1 sequence (P02679 27-453): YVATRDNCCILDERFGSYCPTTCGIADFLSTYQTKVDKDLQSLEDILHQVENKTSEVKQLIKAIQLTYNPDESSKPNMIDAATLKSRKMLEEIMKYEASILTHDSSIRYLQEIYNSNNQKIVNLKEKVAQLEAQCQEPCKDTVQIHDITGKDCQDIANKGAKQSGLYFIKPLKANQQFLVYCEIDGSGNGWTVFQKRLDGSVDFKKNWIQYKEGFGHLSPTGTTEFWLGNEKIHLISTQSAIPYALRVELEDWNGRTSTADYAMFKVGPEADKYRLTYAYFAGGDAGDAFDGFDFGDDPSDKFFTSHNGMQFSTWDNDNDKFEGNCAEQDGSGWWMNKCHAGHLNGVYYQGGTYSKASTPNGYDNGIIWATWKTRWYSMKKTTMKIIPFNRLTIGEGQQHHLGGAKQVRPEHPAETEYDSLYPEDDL
From the text: Coa-F contains an Efb like fibrinogen binding motif. FIG. 11A is an image of a ClustalW alignment of amino acid sequence from Efb-O (Efb 68-98) and Coa from Newman strain (col-Newman). Sequence similarity was identified at Coa 474-505. Bold letters denote conserved residues and underlined letters represent similar residues. FIGS. 11B and 11C show a comparison of amino acid sequence of Efb-O with Coa 474-505 (FIG. 11B) and Coa 506-532 (FIG. 11C). Large letters in Efb-O indicate the residues important for Fg binding. The red letters show the identical residues and the yellow letters indicate the similar residues. […] Increasing concentration of Coa peptides was incubated with 2 nM GST fusion proteins in Fg-coated microtiter wells. Closed square, sCoa-O; closed circle, sCoa-RI; closed triangle, sEfb-O.
A peptide was synthesized that corresponds to the Coa-O sequence (sCoa-O) and determined its Fg binding activity in a competition ELISA. Microtiter wells were coated with Fg and binding of the recombinant N-terminal segment of Efb (rEfb-N), that harbors the two Fg binding sites, was quantitated in the presence of increasing concentration of different synthetic peptides.
In the case of peptide inhibition assay, various concentration of Efb or Coa peptides were mixed with a fixed concentration of Coa-GST or Efb-GST fusion proteins (5-10 nM) in TBS and the bound GST fusion proteins were detected through incubation with HRP-conjugated rabbit anti-GST polyclonal antibodies (5000× dilution). All proteins were diluted in TBS containing 1% BSA and 0.05% TWEEN® 20 and the ELISA assays were carried out at room temperature.

Row | Substance | inhibition of THP-1 adherence to immobilized Fg (THP-1 cells) | inhibition of rEfb-N binding to Fg (rEfb-N binding to Fg) | reversal of inhibition of THP-1 adherence elicited by rEfb or rCoa (THP-1 cells; peptide 50 μM preincubated with rEfb (0.2 μM) or rCoa (0.2 μM))
1 | sCoa-RI: synthetic peptide, first 27 residues of repeat region, Coa 506-532 (ETNAYNVTTHANGQVSYGARPTYKKPS) | did not inhibit THP-1 adherence | effectively inhibited rEfb-N binding to Fg; also recorded: somewhat more effective inhibitor than sCoa-O | –
2 | sEfb-O: synthetic peptide mimicking the high affinity Fg-binding motif in Efb (Efb 68-98) (KYIKFKHDYNILEFNDGTFEYGARPQFN) | did not inhibit THP-1 adherence | potently inhibited rEfb-N binding to the Fg surface; also recorded: effectively inhibited rEfb-N binding to Fg | reverses the inhibitory activities

From patent publication US11407819B2, “Compositions and use of a fibrinogen binding motif present in EFB and COA for therapeutics and vaccines against Staphylococcus aureus” (priority 2013, dated 2022)
